Results from patent US9248163B2, “Insulin-like growth factor binding protein 7 for treatment of cancer” (University of Massachusetts, priority 2007, dated 2016).

Assays:
[1] = system: melanocytes; assay: Senescence-associated β-galactosidase assay; format: cell-based, human; details: rIGFBP7 10 μg/ml for 14 days; growth-arrested cells
Protocol: Melanocytes infected with a retrovirus expressing either vector or BRAFV600E, or melanocytes treated with BRAFV600E/melanocyte CM or rIGFBP7 (10 μg/ml) for 14 days were washed twice with PBS (5 minutes at room temperature), fixed with 3% formaldehyde (5 minutes at room temperature), and washed three more times with PBS. Cells were then incubated at 37° C. (0% CO2) overnight in SA-β-Gal stain solution (1 mg/mL X-Gal (5-bromo-4-chloro-3-indoyl b-D-galactoside), 40 mM citric acid/sodium phosphate (pH 6.0), 5 mM potassium ferrocyanide, 5 mM potassium ferricyanide, 150 mM NaCl and 2 mM MgCl2). Cells were washed with PBS and visualized on a Zeiss Axiovert™ 40 CFL microscope. Images were captured using QCapture™ Pro version 5 software (QImaging Corporation).

[2] = system: human melanoma cell lines; assay: Apoptosis assay (Annexin V-PE) in melanoma cells; format: cell-based
Protocol: PFF fibroblasts or melanocytes or shRNA knockdown derivatives (5×10^5 cells) were infected with BRAFV600E-expressing retrovirus, and 4 days later the total cell population was stained for Annexin V-PE (BD Biosciences). To monitor apoptosis in melanoma cells following rIGFBP7 treatment, 5×10^5 cells were treated with rIGFBP7 (10 μg/ml) for 24 hours and stained for Annexin V-PE.
Finally, it was determined whether apoptosis was dependent upon the continual presence of rIGFBP7 or was irreversible following transient exposure to rIGFBP7. SK-MEL-28 cells were incubated with rIGFBP7 for various lengths of time, following which the cells were washed and cultured in medium lacking rIGFBP7, and apoptosis was quantitated after 24 hours. The results, shown in FIG. 3H, indicate that following 6 hours of incubation with rIGFBP7, the cells were irreversibly committed to apoptosis, which occurred even following removal of rIGFBP7.

[3] = system: primary melanocytes and SK-MEL-28 melanoma cells; assay: Quantitative real-time RT-PCR of the identified genes after rIGFBP7 addition; format: cell-based, human
Protocol: Total RNA was isolated using TRIZOL™ (Invitrogen) 7 days after retroviral transduction and puromycin selection. Reverse transcription was performed using SuperScript™ II Reverse Transcriptase (Invitrogen) as per the manufacturer's instructions, followed by quantitative real-time PCR using Platinum SYBR™ Green qPCR SuperMix-UDG with Rox (Invitrogen).
To understand the basis of this differential response, expression of the 17 identified genes was analyzed in primary melanocytes and BRAFV600E-positive SK-MEL-28 melanoma cells. […] PEA15, a known regulator of BRAF-MEK-ERK signaling (Formstecher et al., 2001, Dev. Cell, 1:239-250), is required for senescence (see FIG. 1F). Thus, the lack of PEA15 induction in IGFBP7-treated SK-MEL-28 cells can explain their failure to undergo senescence.

[4] = system: SK-MEL-31 (wild type BRAF) tumors; assay: Tumor formation assay, SK-MEL-31 xenograft in nude mice; format: in vivo, athymic Balb/c (nu/nu) mice
Protocol: (§1) 5×10^6 SK-MEL-28 or SK-MEL-31 cells were suspended in 100 μl of serum-free DMEM and injected subcutaneously into the right flank of athymic Balb/c (nu/nu) mice (Taconic). Three, six, and nine days later, the mice were injected at the tumor site with either 20 μg of rIGBP7 in a total volume of 100 μl or, as a control, PBS. Tumor dimensions were measured every three days and tumor volume was calculated using the formula π/6×(length)×(width)^2. For the systemic administration experiments, 5×10^6 SK-MEL-28 or SK-MEL-31 cells were injected into the flanks of nude mice and when tumors reached a size of 100 mm3, 100 μg rIGFBP7 in a total volume of 100 μl was delivered by tail vein injection at days 6, 9, and 12. Tumor dimensions were measured every three days. Animal experiments were performed in accordance with the Institutional Animal Care and Use Committee (IACUC) guidelines.

[5] = system: SK-MEL-28 (BRAFV600E-positive) tumors; assay: Tumor formation assay, SK-MEL-28 xenograft in nude mice; format: in vivo, athymic Balb/c (nu/nu) mice
Protocol: as §1

[6] = system: human melanoma cell lines; assay: Proliferation assay of human melanoma cell lines; format: cell-based; details: 24 hours, 10 μg/ml
Protocol: For the proliferation assay shown in FIG. 1B, 1×10^4 cells stably expressing an shRNA were cultured in 12-well plate format, infected with BRAFV600E-expressing retrovirus and after 14 days stained with crystal violet. For all other quantitative proliferation assays, cell viability was measured by trypan blue exclusion test at the time point indicated in the relevant figure legend. Values were expressed as percent cell growth, as described in the relevant figure legend. For the proliferation assays shown in FIG. 2A, CM was replenished every 3 days, and proliferation was measured after a total of 14 days of CM treatment. Unless otherwise stated, rIGFBP7 was added to the culture medium at a concentration of 10 μg/ml.
Next, the ability of IGFBP7 to block cellular proliferation in a panel of human melanoma cell lines was analyzed. The cells contained either an activating BRAF mutation (BRAFV600E; SK-MEL-28, MALME-3M, WM793B, WM39 and WM278), an activating RAS mutation (RASQ61R; SK-MEL-2, SK-MEL-103, and WM1366), or were wild type for both BRAF and RAS (CHL, SK-MEL-31, WM1321 and WM3211). For each cell line, the presence of IGFBP7 in the CM was determined by immunoblot analysis (FIG. 3A), and sensitivity to IGFBP7-induced growth inhibition was measured in a proliferation assay (FIG. 3B). The results reveal a striking inverse correlation between IGFBP7 expression and sensitivity to IGFBP7-mediated growth inhibition that correlates with the status of BRAF or RAS.

[7] = injected at the tumor site, 20 μg, days 3, 6 and 9
[8] = systemic, 100 μg by tail vein injection at days 6, 9 and 12

Question: With “rIGFBP7: purified recombinant human IGFBP7, C-terminal Flag-tagged, from baculovirus-infected Sf9 insect cells” as the substance, how does the “senescence-associated β-galactosidase staining” value [1] read?
Answer: stained positively

Question: And the “incubation time after which cells were irreversibly committed to apoptosis” value ([2]; SK-MEL-28 cells, washed, apoptosis quantitated after 24 hours)?
Answer: 6 h

Question: And the surviving senescent cells ([2]; melanoma cell lines with activating BRAF mutation)?
Answer: undetectable

Question: What about the apoptosis ([2]; melanoma cell lines with activating BRAF mutation, 10 μg/ml, 24 hours) of the same substance?
Answer: strongly induced apoptosis

Question: And the “upregulation of IGFBP7 and PEA15” value ([3]; SK-MEL-28 cells)?
Answer: neither IGFBP7 nor PEA15 were upregulated

Question: And the “induction of the seven BRAFV600E-upregulated genes” value ([3]; melanocytes, IGFBP7 being the exception)?
Answer: six of the seven genes were induced

Question: What about the BNIP3L upregulation ([3]; primary melanocytes) of the same substance?
Answer: only modestly upregulated

Question: And the tumor growth [4, 7]?
Answer: no effect

Question: And the tumor growth [4, 8]?
Answer: unaffected

Question: And the tumor growth [5, 7]?
Answer: substantially suppressed growth

Question: And the “TUNEL labeling of tumors” value ([5]; mice treated with rIGFBP7)?
Answer: positive

Question: What about the tumor growth [5, 8] of the same substance?
Answer: completely suppressed growth

Question: What about the “suppression of tumor growth, dose dependence” value ([5]; systemic, 2, 20, 50, 100 or 250 μg, tumor volume at day 21) of the same substance?
Answer: dose-dependent

Question: What about the adverse effects ([5]; systemic, concentrations higher than required for inhibition of tumor growth) of the same substance?
Answer: without apparent adverse effects

Question: And the “sensitivity to IGFBP7-mediated growth inhibition” value ([6]; cells with wild type BRAF and RAS)?
Answer: relatively insensitive

Question: What about the “sensitivity to IGFBP7-mediated growth inhibition” value ([6]; melanoma cell lines with activating BRAF mutation (BRAFV600E)) of the same substance?
Answer: highly sensitive

Question: And the “sensitivity to IGFBP7-mediated growth inhibition” value ([6]; melanoma cell lines with activating RAS mutation (RASQ61R))?
Answer: partially sensitive
